The subject of data set [1] is MV4-11. The experiment in a line: Induction of cell cycle arrest in human MV4-11 cells assessed as accumulation of cells at G2/M phase at 200 nM incubated for 48 hrs by propidium iodide staining based flow cytometric analysis (reference value: 8%). Type of data set: functional. For orientation: Flow cytometry measures light scatter and fluorescence of single cells or particles in a stream.

The nature of data set [2]: Cmax in Sprague-Dawley rat at 10 mg/kg, po by LC-MS/MS analysis. Type of data set: ADME, organism-based. Further details: dose 10 mg/kg, route po. To be noted: in vivo.
Data set [3] relates to MV4-11. The experiment in a line: Antitumor activity against human MV4-11 cells xenografted BALB/c nude mouse model assessed as tumor growth inhibition at 20 mg/kg, po QD administered for 28 consecutive days. It is filed as functional. To be noted: MV4-11, 672 h, time 28 day, read-out: TGI.
Data set [4] concerns MV4-11. Briefly: Induction of cell cycle arrest in human MV4-11 cells assessed as accumulation of cells at S phase at 100 nM incubated for 48 hrs by propidium iodide staining based flow cytometric analysis (reference value: 26.29%). Type of data set: functional.
Data set [5] in a line: Half life in Sprague-Dawley rat at 10 mg/kg, po by LC-MS/MS analysis. To be noted: in vivo. It is filed as ADME, organism-based.
Data set [6] is described as follows: Clearance in Sprague-Dawley rat at 1 mg/kg, iv by LC-MS/MS analysis. It is filed as ADME, organism-based. To be noted: in vivo.
Data set [7] can be described thus: Induction of cell apoptosis in human MV4-11 cells assessed as late apoptotic cells at 1000 nM incubated for 48 hrs by Annexin V-FITC/Propidium iodide staining based flow cytometry analysis (reference value: 1.99%). Type of data set: functional.
The nature of data set [8]: Metabolic stability in rat liver microsomes assessed as elimination half life incubated for 1 hr by LC-MS/MS analysis. It is filed as ADME, Microsome. To be noted: read-out: beta t1/2. Background: Microsomes from liver hold many membrane-bound enzymes, among them those of drug oxidation.
A short description of data set [9]: Induction of cell apoptosis in human MV4-11 cells assessed as early apoptotic cells at 1000 nM incubated for 48 hrs by Annexin V-FITC/Propidium iodide staining based flow cytometry analysis (reference value: 1.42%). It is filed as functional.
Data set [10] can be described thus: AUC (0 to infinity) in Sprague-Dawley rat at 10 mg/kg, po by LC-MS/MS analysis. It is filed as ADME, organism-based. To be noted: in vivo. Also on record: time infinity, dose 10 mg/kg, route po.
The subject of data set [11] is MV4-11. The experiment in a line: Induction of cell cycle arrest in human MV4-11 cells assessed as accumulation of cells at G2/M phase at 100 nM incubated for 48 hrs by propidium iodide staining based flow cytometric analysis (reference value: 8%). It is filed as functional.

Usually Cmax stands for the highest concentration seen after dosing. By clearance is commonly meant the rate of elimination divided by the concentration. A high value points to a high capacity for elimination. The term AUC(0-inf) denotes total exposure, with the tail of the curve extrapolated. As for `CC(=O)c1c(C)[nH]c(-c2nc3cc(N4CCN(C)CC4)ccc3[nH]2)c1-c1ccccc1`, the Activity was 2.92% with MV4-11 [1]; 18.26% with MV4-11 [4]; 12.2% in [7]; 39.3% in data set [9]; 6.33% with MV4-11 [11]. In data set [2], the concentration peaked (Cmax) at 1270 ng/mL. For the same compound, the inhibition in vivo at 20 mg/kg in the data set on MV4-11 [3] is 48.7%. Further, the half-life in data set [5] is 4.04 h; in [8] it was 1.11 h. The compound also showed a clearance in data set [6] of 24.3 mL/min/kg. The area under the curve AUC(0-inf) in data set [10] came to 8050 ng·h/mL.

The values are drawn from ChEMBL document CHEMBL5136977, “Discovery of 1-(5-(1H-benzo[d]imidazole-2-yl)-2,4-dimethyl-1H-pyrrol-3-yl)ethan-1-one derivatives as novel and potent bromodomain and extra-terminal (BET) inhibitors with anticancer efficacy” (Eur J Med Chem, 2022).
